“And” between values parts separate entries of the source, which are not always exact repeats. Identical values can stand only once. Like-named read-outs stand apart in the source and are kept apart here. Each block holds one substance with its values, some of them ahead of it. No end group written: not given here.
Tests used:
[1] = test system: human C1q binding to PAECs; experiment: Immunohistochemical staining of PAECs for binding of human C1q; assay type: cell-based; conditions: CBP2 1.2 mM
Method: PAECs (1×10^4) in 1 ml of CCM were added to each well of a 4-chamber culture slide (Labtek, Nunc, Naperville, Ill.), and the cells were grown to confluence (incubation for 3 days at 37° C. in 5% CO2 -95% air). The medium was removed, and the slide was washed with PBS (10 mM phosphate buffered saline, pH 7.4, containing 120 mM NaCl and 2.7 mM KCl, Sigma Chemical Co.) in a swirling motion for 5 sec. This was repeated with distilled water and 100% ethanol. The slide was tapped dry and immersed in pre-chilled (-20° C.) acetone for 20 min and then air dried.
HI-HS was added to the wells, and the slide was incubated for 15 min at 37° C. to allow human IgG and IgM antibodies to bind to PAEC epitopes. The HI-HS was removed, and the wells were washed 3 times with PBS. C1q or C1q plus peptide in PBS containing 1% bovine serum albumin (BSA, Sigma Chemical Co.) (PBSA) was then added, and the slide was incubated for 15 min at room temperature. The solutions were removed, and the wells were washed 3 times with PBS. Blocking serum was added [10% donkey serum (The Binding Site, Birmingham, England) in PBS], and the slide was incubated for 20 minutes at room temperature. […] Staining of the cells was analyzed on a Zeiss Axioskop (Carl Zeiss, Oberkochen, Germany) with a wide band FITC filter.

[2] = test system: PAP binding to solid phase CBP2; experiment: Elution or inhibition of PAP binding to the CBP2 column by solution peptide; design: species or system rabbit; conditions: for PAP binding to solid phase CBP2 after pre-incubation with peptide: 0.1 mM peptide, 1 hour 25° C., PAP 20 μg/ml; for elution of bound PAP from CBP2 column by peptide wash: 3 ml of 336.2 μg/ml CBP2 or equimolar LHRH
Method: An additional 6 ml of C1q buffer was used to wash the column followed by 3 ml of 2% (v/v) acetic acid and then with 6 ml of C1q buffer to completely wash the column.
The sample was then eluted with 21 ml C1q buffer followed by 3 ml of 2% (v/v) acetic acid and then 6 ml C1q buffer. The column fractions were assayed for the presence of peroxidase as described above in Part A, and the concentration of PAP was calculated from the standard curve data.
This was not the case, however, since similar concentrations were used for column elution as for the pre-incubation studies. […] Thus, the effect of aggregates, if they formed, was of little significance.

[3] = test system: sensitized sheep erythrocytes (SRBCs), human serum as complement; experiment: Sheep red blood cell lysis assay (SRBC assay); assay type: cell-based
[4] = test system: binding of rabbit Ig-HRP by solid phase Protein A; experiment: Inhibition of binding of Ig-HRP to solid phase Protein A
Method: Protein A (recombinant Protein A from Repligen, Cambridge, Mass.) diluted to 1 μg/ml in coating buffer (0.1M NaHCO3, pH 9.0) was incubated in the wells of a microtiter plate (100 μl per well) for 2 hours at 37° C. Uncoated surfaces of the wells were blocked by adding 340 μl PBSC (9 mM Na2 HPO4, 1 mM NaH2 PO4, pH 7.2, 154 mM NaCl, 1 mg/ml casein or ovalbumin, and 0.01% thimerosal), incubating the plate 1 hour at 37° C., and then washing the wells 3 times with PBSCT (PBSC plus 0.1% Tween 20 (polyoxyethylene sorbitan monolaurate)). Dilutions of rabbit immunoglobulin labeled with horseradish peroxidase (Ig-HRP) (Zymed Laboratories, Inc., South San Francisco, Calif.) in PBS (9 mM Na2 HPO4, 1 mM NaH2 PO4, pH 7.2, 154 mM NaCl) were incubated in the wells (100 μl per well) for 2 hours at 37° C. followed by washing 3 times with PBS. OPD substrate buffer (0.8 mg/ml o-phenylenediamine, 0.1M Na2 HPO4, 0.05M sodium citrate, pH 5.5, plus 0.15% (v/v) H2 O2) was then added to the wells (100 μl/well), and the resultant colored product was measured with a Titertek Multiskan plate reader using a 414 nm filter.
OPD substrate buffer was then added (100 μl/well), and the resulting colored product was measured at 414 nm in a Titertek Multiskan plate reader.
8. […] Then the inhibition assay using solid phase Protein A was performed as described above.

HRP enzyme = target: T1, HRP enzyme (Armoracia rusticana, UniProt P00433); experiment: Control: effect of CBP2 on the HRP enzyme; assay type: biochemical, horseradish; conditions: 50 μM CBP2, 3 hours 37° C.
T1 construct: purchased Zymed Laboratories, Inc
Method: 1. […] Aliquots of 100 μl were placed in the wells of a microtiter plate and an equal volume of OPD substrate buffer was added, and the colored product was measured at 414 nm.

[5] = test system: pig aorta endothelial cells (PAECs), human serum; experiment: Chromium release assay (PAEC assay); assay type: cell-based
Method: Culture plates (Falcon 24-well plates, Becton Dickinson, Lincoln Park, N.J.) were coated by addition of 0.5 ml/well of 2% gelatin (Type B, from bovine skin, Sigma Chemical Co.) diluted 1:10 in Hanks buffered salt solution (Gibco BRL, Grand Island, N.Y.), followed by incubation for 15 min at room temperature. The gelatin solution was removed, and 125×10^3 pig aorta endothelial cells (PAECs, Cell Systems, Kirkland, Wash.) in 2 ml of cell culture medium (CCM, Dulbecco's modified Eagle's medium (DMEM) with high glucose (Gibco BRL) containing 20% defined fetal bovine serum (FBS, HyClone Laboratories, Logan, Utah) that had been heat inactived for 30 min at 56° C., 1%(v/v) L-glutamine (200 mM, Gibco BRL) and penicillin G sodium (10,000 units/ml)/streptomycin sulfate (10,000 μg/ml in 0.85% saline, Gibco BRL)] were added per well. The plate was centrifuged in a model GS-6R Beckman table top centrifuge at 20×g for 2 min with the brake off to settle the cells onto the gelatin in a even monolayer, after which the plate was incubated at 37° C. in 5% CO2 -95% air. After 4 hours, cell attachment had occurred, and the CCM was removed and replaced with 2 ml of fresh CCM. In 2-4 days the PAECs had grown to 80-100% confluence and were used in the complement mediated chromium release assay.
The PAECs were washed 3 times with 1 ml of serum free medium (SFM), leaving the SFM on the cells for 5 min each time. Chromium radioisotope (^51 Cr, NaCrO4, Amersham Corp., Arlington Heights, Ill.) was diluted in SFM to give 40 μCi/ml, and 100 μl were added to each well of the PAEC culture plate. The plate was incubated for 2 hours at 37° C. in 5% CO2 -95% air. The wells were washed three times with 1 ml of SFM. Then, 1 ml of PBS was added to each well, and the plate was incubated at 37° C. for 30 min to help reduce ^51 Cr background.
The various peptide inhibitors (diluted in SFM) were added (300 μl/well) and incubated with the PAECs at 37° C. for 30 min. Undiluted human serum (HS, 100 μl) or 100 μl of heat inactivated human serum (HIHS) was added to each well, and the plate was incubated at 37° C. for 1 hour. Supernatant (200 μl) was removed from each well and added to 200 μl of scintillation cocktail (OptiPhase `Supermix`, Wallac Inc., Turku, Finland) previously added to each well of a 24-well polyethylene terephtalate reading plate (Wallac Inc.), and the plate was sealed with an acetate plate sealer (Dynatech Laboratories, Chantilly, Va.). The reading plate was placed on a shaker for 5 min to obtain a homogeneous mixture. Radioactivity (CPMs) of the wells was counted for 2 min using the 1450 MicroBeta PLUS plate reader (Wallac Inc.).
Total counts of ^51 Cr were determined from 200 μl aliquots taken from the wells to which 100 μl of 5% Triton X-100 (Sigma Chemical Co.) had been added. Total complement mediated lysis was determined from wells treated with HS alone, and background counts were determined from wells treated with HI-HS alone or with peptide alone (no HS). The average background was subtracted from all well counts, and the percent inhibition calculated as total lysis minus lysis with inhibitor/total lysis multiplied by 100. All experimental points were obtained in triplicate, and the data were analyzed in the same manner as the data from the SRBC assays.

[6] = test system: guinea pig hearts transplanted into C6 deficient PVG rats; experiment: Heterotopic heart transplantation; assay type: in vivo, rat; conditions: pump 2ML4 (15.6 mg CBP2) plus i.v. 15.6 mg on day 2; 2 rats, individual values
Method: Four to six week old guinea pigs (GP, Harlan, Indianapolis, Ind.) hearts were transplanted into C6 deficient PVG rats (B&K, Kent, Wash.) by a modification of the technique described by Ono and Lindsay (Journal of Thoracic Cardiovascular Surgery, 57, 225, 1969). Seven of the rats receiving GP hearts were not treated, 8 additional rats receiving GP hearts were treated with a single pre-transplant intravenous injection of a 3 ml cocktail of CBP3 [SEQ ID NO:4] (0.67 mg/ml) and 1.03 mg/ml of AEK [SEQ ID NO:5]. CBP3, 15.4 mg, was dissolved in 1.1 ml of 60% DMF in H2 O and AEK, 10 mg, was dissolved on 0.5 ml H2 O. Two hundred μl of CBP3 and 100 μl of AEK were added to 2.7 ml of 1:5 diluted (in PBS) heat-inactivated PVG C6 deficient rat serum. The GP transplanted hearts were monitored several times daily, and the times noted when the hearts stopped beating.
Two additional PVG C6 deficient rats were transplanted with GP hearts.
In a separate experiment, two C6 deficient PVG rats were transplanted with GP hearts.

[7] = target: binding of rabbit Ig-HRP to solid phase C1q; experiment: Inhibition of binding of Ig-HRP to solid phase C1q
Method: C1q (gift of Dr. Lawrence Potempa, Immtech International Inc., Evanston, Ill.) diluted to 10 μg/ml in coating buffer was placed in the wells of a microtiter plate (100 μl/well) and incubated for 2 hours at 25° C. The uncoated surfaces of the wells were blocked by adding 340 μl PBSC and incubating the plate for 1 hour at 25° C., followed by washing 3 times with PBSC. Dilutions of Ig-HRP in C1q buffer (50 mM Tris, pH 7.2, 27 mM NaCl, 1 mM CaCl2, 0.01% (wt/v) Thimerosal) were incubated in the wells (100 μl/well) for 1 hour at 25° C. followed by washing 3 times with C1q buffer. OPD substrate buffer was then added (100 μl/well), and the colored product was measured at 414 nm in a Titertek Multiskan plate reader.
C1q was coated onto the surface of the wells of a microtiter plate as described in Part C. […] OPD substrate buffer (100 μl/well) was then added and the colored product measured at 414 nm in a Titertek Mutiskan plate reader.

[8] = same concentration range as CBP2
[9] = highest concentration (1 mM) tested

Sequence of PAP binding to solid phase CBP2 (P01870 whole entry): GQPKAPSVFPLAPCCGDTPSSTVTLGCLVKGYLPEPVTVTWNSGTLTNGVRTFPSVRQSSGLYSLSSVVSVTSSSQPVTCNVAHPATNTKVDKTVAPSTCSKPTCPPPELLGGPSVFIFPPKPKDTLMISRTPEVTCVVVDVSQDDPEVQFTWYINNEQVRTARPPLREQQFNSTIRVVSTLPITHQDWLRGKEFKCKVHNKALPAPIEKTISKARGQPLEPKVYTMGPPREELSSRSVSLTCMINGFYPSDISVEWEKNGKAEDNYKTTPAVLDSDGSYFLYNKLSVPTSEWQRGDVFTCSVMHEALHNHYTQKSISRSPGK
T1 sequence (P00433 31-338 limits assumed): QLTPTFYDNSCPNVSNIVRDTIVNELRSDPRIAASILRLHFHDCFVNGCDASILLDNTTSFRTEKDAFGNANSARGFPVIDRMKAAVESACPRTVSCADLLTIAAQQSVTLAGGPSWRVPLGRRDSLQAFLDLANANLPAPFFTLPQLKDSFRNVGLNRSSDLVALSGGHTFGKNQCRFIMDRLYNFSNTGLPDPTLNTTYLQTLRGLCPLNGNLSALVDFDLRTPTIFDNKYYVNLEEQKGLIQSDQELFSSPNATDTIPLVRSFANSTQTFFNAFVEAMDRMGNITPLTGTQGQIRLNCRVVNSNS
T1 sequence (P01870 whole entry partner): as the sequence (P01870 whole entry) above
T1 sequence (P01840 whole entry partner): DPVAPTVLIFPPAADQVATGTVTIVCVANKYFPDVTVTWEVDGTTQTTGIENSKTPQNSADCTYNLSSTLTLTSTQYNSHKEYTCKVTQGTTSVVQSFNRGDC

Substance: LEQGENVFLQATLLC [CBP2, C1q B chain residues 189-200 plus Leu Leu Cys at the carboxyl terminus]
- C1q binding to PAECs (immunohistochemical staining) [1]: only trace binding of C1q
- PAP binding to solid phase CBP2 after pre-incubation with peptide [2]: dramatic loss of PAP binding
- elution of bound PAP from CBP2 column by peptide wash [2]: small but significant PAP peak which was eluted from the column
- inhibition of PAP binding to CBP2 column ([2]; PAP pre-incubated with 156 μg/ml CBP2): approximately 40%
- % Inhibition SRBC Assay +/- S.D. ([3]; 31 μM): 0.0 +/- 0.0%
- % Inhibition SRBC Assay +/- S.D. ([3]; 62.5 μM): 13.5% and 13.5 +/- 9.3%
- % Inhibition SRBC Assay +/- S.D. ([3]; 125 μM): 45.2 +/- 30.8%
- % Inhibition SRBC Assay +/- S.D. ([3]; 250 μM): 78.0 +/- 18.3%
- % Inhibition SRBC Assay +/- S.D. ([3]; 1000 μM): 97.4 +/- 2.7%
- inhibition of Protein A binding of Ig-HRP (maximum) [4]: ~100%
- effect of DTT on the inhibitory activity of CBP2 ([4]; 4 mg/ml DTT, 2 hours 37° C., solid phase Protein A): no effect
- IC50 ([4]; Ig-HRP 1:5000 in PBS, preincubated 1 hour 37° C., read-out: concentration at 50% inhibition of Protein A binding of Ig-HRP): ~1000 nM
- effect on the HRP enzyme (HRP enzyme): did not inhibit the HRP enzyme
- % Inhibition PAEC Assay +/- S.D. ([5]; 31 μM): 2.0 +/- 3.1%
- % Inhibition PAEC Assay +/- S.D. ([5]; 62.5 μM): 10.6% and 10.6 +/- 13.5%
- % Inhibition PAEC Assay +/- S.D. ([5]; 125 μM): 25.0 +/- 14.8%
- % Inhibition PAEC Assay +/- S.D. ([5]; 250 μM): 64.4 +/- 8.4%
- % Inhibition PAEC Assay +/- S.D. ([5]; 500 μM): 87.2% and 87.2 +/- 3.8%
- Graft Survival [6]: 4 days and 5 days
- IC50 ([7]; Ig-HRP 1:100 in C1q buffer, 25° C., read-out: 50% inhibition concentration, Ig-HRP binding to solid phase C1q): ~10000 nM

Substance: luteinizing hormone releasing hormone [LHRH, reference compound]
- PAP binding to solid phase CBP2 after pre-incubation with peptide [2]: PAP binding to the column in the range normally observed
- elution of bound PAP from CBP2 column by peptide wash [2]: no significant elution of PAP
- Protein A inhibitory activity [4, 8]: no Protein A or C1q inhibitory activity
- C1q inhibitory activity [7, 8]: no Protein A or C1q inhibitory activity

- IC50 ([7]; read-out: 50% inhibition concentration for liquid phase C1q inhibiting solid phase C1q): ~10 nM
Substance: C1q: complement component C1q, gift of Immtech International, liquid phase positive control

Substance: Ac-AEAKAKA-NH2 [AEK, Ac-Ala Glu Ala Lys Ala Lys Ala-NH2]
- inhibitory activity in the SRBC assay [3, 9]: no inhibitory activity
- inhibitory activity in the PAEC assay [5, 9]: no inhibitory activity

Substance: Protein A: recombinant Protein A from Repligen, positive control in solution phase [reference compound]
- IC50 ([4]; Ig-HRP binding to solid phase Protein A, read-out: 50% inhibition concentration for solution phase Protein A): 1 nM
